This data set addresses IRF4. The following applies: ASO.

From the OligoGym collection come the findings set out here.

Several values for one entry are separate records, joined by “and”; a condition that tells them apart may be missing. Identical values can stand only once. After the bases stand the sugars from the 5' end (letter, count) and the backbone: PS all phosphorothioate, else s phosphorothioate and o phosphodiester by linkage. Methylation of C is not given here. e = 2'-O-(2-methoxyethyl) (MOE); k = constrained ethyl (cEt); d = 2'-deoxy (DNA)

Take “GTGTGCTTGCCAAGCC (sugars kdddddddddkekeke, PS)”: where the note is “MM.1R, 1 µM”, the target mRNA inhibition is 6% and 22%.
As to GTTAACAATATGCTTC (sugars k3 d10 k3, PS), for the setting “SK-MEL-28, 4 µM”, the target mRNA inhibition was 25%.
On to GTTAAGTCCCATCTGT (sugars k3 d10 k3, PS), for which the target mRNA inhibition (SK-MEL-28, 4 µM) was found to be 40%.
In the case of GTTACTCACGAGCACC (sugars k3 d10 k3, PS), the target mRNA inhibition (MM.1R, 1 µM) is -17%.
The same measure, in the same setting: with GTTCAAGACAAGGGTT (sugars k3 d10 k3, PS) the figure was 15%; with GTTCACAACAGAGCTG (sugars k3 d10 k3, PS), -16%.
For GTTCACGAAACACAGT (sugars k3 d10 k3, PS), the target mRNA inhibition (SK-MEL-28, 4 µM) was 63%.
Take GTTCAGTGTGTTGACC (sugars k3 d10 k3, PS): the target mRNA inhibition (MM.1R, 1 µM) stood at 30%.
As for GTTCCAGGAGATATTA (sugars k3 d10 k3, PS), under “SK-MEL-28, 4 µM”, the target mRNA inhibition was 52%.
Still for that read-out and setting: the value for GTTCCTGTCACCTGGC (sugars k3 d10 k3, PS) was 49%; that for GTTCTAGGGTCCTCCT (sugars k3 d10 k3, PS) was 50%.
The same measure, in the same setting: with GTTGAACCCATCTTGA (sugars k3 d10 k3, PS) the figure was 16%; with GTTGACACAGGAGCCG (sugars k3 d10 k3, PS), 53%.
On to “GTTGGCTGGTCTTTGT (sugars kkdddddddddekeke, PS)”, for which, under “MM.1R, 1 µM”, the target mRNA inhibition was found to be 23%.
Regarding “GTTGTAAATGAGTCGG (sugars k2 d9 e3 k2, PS)”, the target mRNA inhibition is, setting by setting: (H929, 0.00067 µM) 6%; (H929, 0.002 µM) 21%; (H929, 0.00667 µM) 45%; (H929, 0.02 µM) 57%; (H929, 0.04 µM) 13%; (KMS11, 0.2 µM) 50% and 44%. Further, the target mRNA inhibition runs as follows: (MM.1R, 0.074 µM) 26%; (MM.1R, 0.222 µM) 53%; (MM.1R, 0.666 µM) 76%; (MM.1R, 1 µM) 82%; (MM.1R, 2 µM) 93%.
Take GTTGTAAATGAGTCGG (sugars k3 d10 k3, PS): the target mRNA inhibition (SK-MEL-28, 4 µM) is 87% and 81%.
As for GTTTGTGAAGCATCCT (sugars k3 d10 k3, PS), the target mRNA inhibition (SK-MEL-28, 4 µM) was found to be 65%.
Still for that read-out and setting: the value for GTTTTAAGAGGCGACT (sugars k3 d10 k3, PS) was 33%.
The same measure, in the same setting: the value for GTTTTTTGACTCAAGA (sugars k3 d10 k3, PS) was 67%; that for TAAAAGAGGTGCTAGG (sugars k3 d10 k3, PS) was 27%; that for TAAAAGGTTCCTGTCA (sugars k3 d10 k3, PS) was 6%.
Same read-out and setting: with TAAACAAGATGAATCC (sugars k3 d10 k3, PS) the figure was 44%; with TAAACAGTGCCCAAGC (sugars k3 d10 k3, PS), 41%.
On to TAAAGGAGTGCAGGAG (sugars k3 d10 k3, PS), for which the target mRNA inhibition (SK-MEL-28, 4 µM) is -7%.
Regarding TAAATTCTAGTTTGCC (sugars k3 d10 k3, PS), the target mRNA inhibition (SK-MEL-28, 4 µM) worked out at 68%.
As for TAACGAGGTGCCTTAC (sugars k3 d10 k3, PS), the target mRNA inhibition (MM.1R, 1 µM) is 13%.
As to TAACTAAAACTGCATC (sugars k3 d10 k3, PS), for the setting “SK-MEL-28, 4 µM”, the target mRNA inhibition was 10%.
Turning to TAAGAAGCACTGGCAT (sugars k3 d10 k3, PS), the target mRNA inhibition (SK-MEL-28, 4 µM) is 26%.
The same measure, in the same setting: the value for TAAGAGGCGACTGCTG (sugars k3 d10 k3, PS) was -45%; that for TAAGGAACAAGTGTAT (sugars k3 d10 k3, PS) was 18%.
For the sequence TAATCCACAATCAGCA (sugars k3 d10 k3, PS), where the note is “MM.1R, 1 µM”, the target mRNA inhibition was -27%.
On to TAATTACTGCTTGAGG (sugars k3 d10 k3, PS), for which the target mRNA inhibition (MM.1R, 0.074 µM) was found to be 9%; the target mRNA inhibition (MM.1R, 0.222 µM) was 31%; the target mRNA inhibition (MM.1R, 0.666 µM) turned out to be 54%; the target mRNA inhibition (MM.1R, 1 µM) worked out at 62%; the target mRNA inhibition (MM.1R, 2 µM) was 77%.
Consider TACAAAAACTTGGGTC (sugars k3 d10 k3, PS), for which, under “SK-MEL-28, 4 µM”, the target mRNA inhibition came out at 9%.
Same read-out and setting: with TACAAGCAGTCATCAC (sugars k3 d10 k3, PS) the figure was 29%.
For the sequence TACAAGGTCTGAGTTG (sugars k3 d10 k3, PS), the target mRNA inhibition (MM.1R, 1 µM) was -6%.
As to TACACCTACACAGGCT (sugars k3 d10 k3, PS), where the note is “SK-MEL-28, 4 µM”, the target mRNA inhibition worked out at 19%.
In the case of TACAGGCACGGCTTCA (sugars k3 d10 k3, PS), the target mRNA inhibition (SK-MEL-28, 4 µM) worked out at 58%.
Take TACCAACGACAGCATA (sugars k3 d10 k3, PS): the target mRNA inhibition (SK-MEL-28, 4 µM) came out at 61%.
On to TACCAGCTCAATAATC (sugars k3 d10 k3, PS), for which the target mRNA inhibition (MM.1R, 1 µM) is -27%.
Turning to TACCTACAAGCAGTCA (sugars k3 d10 k3, PS), the target mRNA inhibition (SK-MEL-28, 4 µM) was determined as 56%.
On the same count and under the same terms, with TACGAGCACATGTCAA (sugars k3 d10 k3, PS) the figure was 36%.
As for TACGCTTATTTTTCCA (sugars k3 d10 k3, PS), the target mRNA inhibition is, setting by setting: (MM.1R, 0.0625 µM) 1% and 12%; (MM.1R, 0.25 µM) 29% and 44%; (MM.1R, 1 µM) 51% and 56%; (MM.1R, 4 µM) 65% and 77%.
TACTCTTAGGCACATC (sugars k3 d10 k3, PS): the target mRNA inhibition (SK-MEL-28, 4 µM) is 59%.
For the sequence “TACTGCTTGAGGTTTT (sugars k2 d9 e3 k2, PS)”, for the setting “MM.1R, 1 µM”, the target mRNA inhibition came out at 10%.
Take “TACTGCTTGAGGTTTT (sugars k3 d9 k3 e1, PS)”: the target mRNA inhibition (MM.1R, 1 µM) was 13%.
Same read-out and setting: the value for “TACTGCTTGAGGTTTT (sugars kkdddddddddkdkdk, PS)” was 15%.
As to “TACTGCTTGAGGTTTT (sugars kkkdddddddddkeke, PS)”, the target mRNA inhibition (MM.1R, 1 µM) was 7%.
With “TACTGCTTGAGGTTTT (sugars kkkddddddddkekek, PS)”, the target mRNA inhibition (MM.1R, 1 µM) was -8%.
Still for that read-out and setting: with “TACTGTTACCGATGCT (sugars kkddddddddddkeke, PS)” the figure was 24% and 17%.
Turning to TACTTAAGCAAGTGGA (sugars k3 d10 k3, PS), under “SK-MEL-28, 4 µM”, the target mRNA inhibition was 75% and 71%.
In the case of TAGAATGAGAGGTGTC (sugars k3 d10 k3, PS), the target mRNA inhibition (SK-MEL-28, 4 µM) came out at 29%.
With TAGAATGCATAACACG (sugars k3 d10 k3, PS), the target mRNA inhibition (MM.1R, 1 µM) worked out at 8%.
Consider TAGACTGACAGCCGAA (sugars k3 d10 k3, PS), for which, under “MM.1R, 1 µM”, the target mRNA inhibition was 3%.
On to TAGCATCAGAGCTAGA (sugars k3 d10 k3, PS), for which the target mRNA inhibition (SK-MEL-28, 4 µM) was found to be 49%.
Consider TAGCATGTATGCATTC (sugars k3 d10 k3, PS), for which the target mRNA inhibition (SK-MEL-28, 4 µM) was 52%.
For TAGCCAATTCCTCCAC (sugars k3 d10 k3, PS), under “MM.1R, 1 µM”, the target mRNA inhibition stood at 1%.
Consider TAGGAGTGTAACTGAG (sugars k3 d10 k3, PS), for which, under “SK-MEL-28, 4 µM”, the target mRNA inhibition was 37%.
On the same count and under the same terms, the value for TAGGGATACAGCAGGC (sugars k3 d10 k3, PS) was 73%.
Regarding TAGGTATACTTAAGCA (sugars k3 d10 k3, PS), the target mRNA inhibition (SK-MEL-28, 4 µM) amounted to 79%.
For the sequence “TAGTATGAGAAACGGC (sugars kddddddddddkekek, PS)”, the target mRNA inhibition (MM.1R, 1 µM) came to 24%.
With “TAGTATGAGAAACGGC (sugars kkddddddddddkeke, PS)”, where the note is “MM.1R, 1 µM”, the target mRNA inhibition worked out at 46%.
The same measure, in the same setting: the value for “TAGTATGAGAAACGGC (sugars kkdddddddddekeke, PS)” was 50%; that for “TAGTATGAGAAACGGC (sugars kkdddddddddkdkdk, PS)” was 39%; that for “TAGTATGAGAAACGGC (sugars kkkddddddddkekek, PS)” was 30%.
On to TAGTGTTCCAGGAGAT (sugars k3 d10 k3, PS), for which the target mRNA inhibition was found to be 15% (MM.1R, 0.074 µM); 29% (MM.1R, 0.222 µM); 52% (MM.1R, 0.666 µM); 53% (MM.1R, 1 µM); 80% (MM.1R, 2 µM).
As to TAGTTAAGTACTTGGA (sugars k3 d10 k3, PS), the target mRNA inhibition (SK-MEL-28, 4 µM) stood at 56%.
Still for that read-out and setting: the value for TAGTTTAAGGGTTACG (sugars k3 d10 k3, PS) was 49%; that for TATACTTAAGCAAGTG (sugars k3 d10 k3, PS) was 47%.
On the same count and under the same terms, the value for TATAGAGCATCACTAT (sugars k3 d10 k3, PS) was 41%; that for TATAGTAGGTAAGATC (sugars k3 d10 k3, PS) was 13%.
On the same count and under the same terms, with TATATGACGACTTAAG (sugars k3 d10 k3, PS) the figure was 30%; with TATTACCATGCATAGT (sugars k3 d10 k3, PS), 30%; with TCAAAAGTCTTAAGGG (sugars k3 d10 k3, PS), 7%.
For the sequence TCAAACACTAATACCT (sugars k3 d10 k3, PS), the target mRNA inhibition (SK-MEL-28, 4 µM) was determined as 25%.
The same measure, in the same setting: with TCAAACCCTACTGGGT (sugars k3 d10 k3, PS) the figure was 8%.
Take TCAAAGTCATTGCTCT (sugars k3 d10 k3, PS): the target mRNA inhibition (SK-MEL-28, 4 µM) worked out at 21%.
The same measure, in the same setting: the value for TCAACCGCTGAACTGA (sugars k3 d10 k3, PS) was 35%; that for TCAAGAGGAACTAGTC (sugars k3 d10 k3, PS) was 24%.
Still for that read-out and setting: the value for TCAAGTAAAGTGATCA (sugars k3 d10 k3, PS) was 48%.
For TCACAGATTAATAGTA (sugars k3 d10 k3, PS), where the note is “SK-MEL-28, 4 µM”, the target mRNA inhibition is 23%.
Consider TCACAGTGATCATCAA (sugars k3 d10 k3, PS), for which the target mRNA inhibition (SK-MEL-28, 4 µM) was 43%.
Consider TCACATGATAAGGCAC (sugars k3 d10 k3, PS), for which, under “MM.1R, 1 µM”, the target mRNA inhibition worked out at 19%.
Turning to TCACCTGAAGGATTTG (sugars k3 d10 k3, PS), under “SK-MEL-28, 4 µM”, the target mRNA inhibition was 25%.
As for TCACCTGGCAACCTGC (sugars k3 d10 k3, PS), where the note is “SK-MEL-28, 4 µM”, the target mRNA inhibition turned out to be 25%.
As for TCACGAAACACAGTCT (sugars k3 d10 k3, PS), the target mRNA inhibition (SK-MEL-28, 4 µM) was determined as 68%.
